Where two headings read alike, the source gives them in different places.
Experiments:
[1] = Decomposition kinetics (HNO release) monitored by UV-Vis spectroscopy; assay type: physicochemical; conditions: for half-life: pH 7.4, decomposition half-life, pH 7.4, 37° C., compounds 5, 7-10 not first-order, approximate half-lives; for kO2/kAr: ratio of oxygen-dependent to argon decomposition rate, 0.1 M PBS pH 7.4, 37° C.
Protocol: The decomposition rates of the compounds may be determined by UV-Vis spectroscopy.
The decomposition of compounds 1-4 and 6 from Example 1 was monitored by UV-Vis spectroscopy in 0.1 M PBS buffer at pH 7.4 and 37° C. The spectral behavior was isosbestic and the time course fit well to a single exponential. […] Decomposition kinetics for compounds 5, 7-10 of Example 1 are not first-order and thus only approximate half-lives are reported. Compounds with more than one number in a single column in the table below indicates the results of two experiments for the same compound.

[2] = system: ischemia/reperfusion injury; conditions: pre-ischemic administration; cited from earlier work
rat renal tissue = conditions: rat kidney, given during ischemia and 5 minutes before reperfusion; cited from earlier work
[3] = system: myocardial ischemia/reperfusion injury; conditions: anesthetized rabbits, given during ischemia and 5 minutes prior to reperfusion; cited from earlier work
[4] = aerated 0.1 M PBS buffer, aerated 0.1 M PBS buffer, read-out: t1/2 (air)
[5] = argon-saturated 0.1 M PBS buffer, argon-saturated 0.1 M PBS buffer, read-out: t1/2 (Ar)

| Compound | half-life [1, 4] [min] | half-life [1, 5] [min] | kO2/kAr [1] | melting point | effect on ischemia/reperfusion injury [2] | neutrophil infiltration into renal tissue (rat renal tissue) | effect on myocardial ischemia/reperfusion injury [3] |
| --- | --- | --- | --- | --- | --- | --- | --- |
| O=S(=O)(NO)c1ccccc1F [Compound 1, 2-Fluoro-N-hydroxybenzenesulfonamide] | 2.67 | 17.5 | 5.82 | 127 to 129 °C | – | – | – |
| O=S(=O)(NO)c1ccccc1Cl [Compound 2, 2-Chloro-N-hydroxybenzenesulfonamide] | 1.75 | 3.61 | 1.06 | 152 to 155 °C (dec.) | – | – | – |
| O=[N+]([O-])c1ccc(S(=O)(=O)NO)cc1 [Compound 10, 4-Nitro-N-hydroxybenzenesulfonamide] | 3.3 | – | – | – | – | – | – |
| O=S(=O)(NO)c1ccccc1Br [Compound 3, 2-Bromo-N-hydroxybenzenesulfonamide] | 0.68 | 1.05 | 0.55 | 156 to 159 °C (dec.) | – | – | – |
| O=S(=O)(NO)c1ccc(F)cc1 [Compound 7, 4-Fluoro-N-hydroxybenzenesulfonamide] | 10 | 72.1 | – | – | – | – | – |
| O=S(=O)(NO)c1ccc(C(F)(F)F)cc1 [Compound 8, 4-(Trifluoromethyl)-N-hydroxybenzenesulfonamide] | 7 | 33 | – | 117 to 121 °C (dec.) | – | – | – |
| [Na+].[Na+].[O-][N+]([O-])=NO [AS, sodium dioxotrinitrate] | – | – | – | – | prevent or reduce ischemia/reperfusion injury | contributed to neutrophil infiltration into the tissue | increased myocardial ischemia/reperfusion injury |
| CC(C)N[N+]([O-])=N[O-].[Na+] [isopropylamine/NO] | – | – | – | – | prevent or reduce ischemia/reperfusion injury | – | – |
| O=S(=O)(NO)c1ccccc1C(F)(F)F [Compound 4, 2-(Trifluoromethyl)-N-hydroxybenzenesulfonamide] | 0.55 | 0.96 | 0.75 | 124 to 127 °C (dec.) | – | – | – |
| N#Cc1ccc(S(=O)(=O)NO)cc1 [Compound 9, 4-Cyano-N-hydroxybenzenesulfonamide] | 4 | 17.8 | – | 151 to 155 °C (dec.) | – | – | – |
| O=S(=O)(NO)c1cc(Cl)sc1Cl [Compound 6, 2,5-Dichlorothiophene-3-sulfohydroxamic acid] | – | – | 2.52 | – | – | – | – |
